PubChem BioAssay (NCI)
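Where inhibition never reached the appropriate level, the endpoint shown equals the highest concentration tested. Otherwise, values were interpolated linearly from a five-concentration, 48-hour dose response in 96-well plates. The concentration for 50% growth inhibition is given as GI50. TGI is the concentration that stops growth completely.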

Tests used:
Assay in all cases: inhibition of tumour cell growth, NCI panel, 48 h
[1] = test system: BT-549 breast
[2] = test system: HL-60(TB) leukemia
[3] = test system: RPMI-8226 leukemia
[4] = test system: M14 melanoma
[5] = test system: MALME-3M melanoma
[6] = test system: HOP-92 NSCLC
[7] = test system: UACC-62 melanoma
[8] = test system: NCI-H226 lung
[9] = test system: MDA-MB-435
[10] = test system: TK-10 renal

Compound O=C1C=C(N2CCN(c3ccccn3)CC2)C(=O)c2c(O)ccc(O)c21 has a TGI [1] of over 100 µM, a TGI [2] of 20.3 µM and a TGI [3] of 41.7 µM. The TGI [4] was over 48.2 µM, the TGI [5] was 1.63 µM and the TGI [6] was over 54.1 µM. The TGI [7] was 16.1 µM, the TGI [8] was over 56.2 µM and the TGI [9] was 1.75 µM. The TGI [10] was 45.7 µM.

Compound O=C1CSC2(CC(/C=C/c3ccccc3Br)=NN2c2cccc(S(=O)(=O)O)c2)N1c1nc2ccccc2s1 (stereo not drawn) has a TGI [1] of over 100 µM, a TGI [2] of over 100 µM and a TGI [3] of over 100 µM. It also gave a TGI [4] of over 100 µM, a TGI [5] of over 100 µM and a TGI [6] of over 100 µM. It also gave a TGI [7] of over 100 µM, a TGI [8] of over 100 µM and a TGI [9] of over 100 µM. It also gave a TGI [10] of over 100 µM.

With C/C(=N\Nc1ccccc1)C(CN(C)C)C(c1ccccc1)c1c(O)c2ccccc2oc1=O (stereo not drawn) the TGI [1] was over 100 µM, the TGI [2] was over 100 µM and the TGI [3] was over 100 µM. It also gave a TGI [4] of over 100 µM, a TGI [5] of over 100 µM and a TGI [6] of 97 µM. The TGI [7] was over 100 µM, the TGI [8] was over 100 µM and the TGI [9] was over 100 µM. For the same compound, the TGI [10] was over 100 µM.

In the case of COC(=O)C(C(=O)C(=O)NC1Nc2ccc(C)cc2S1)c1nc2ccc(Cl)cc2[nH]c1=O (stereo not drawn), the TGI [1] is reported as over 100 µM, the TGI [2] is reported as over 100 µM and the TGI [3] is reported as over 100 µM. For the same compound, the TGI [5] was over 100 µM, the TGI [6] was over 100 µM and the TGI [7] was over 100 µM. For the same compound, the TGI [8] was over 100 µM, the TGI [9] was over 100 µM and the TGI [10] was over 100 µM.

Compound O=C1OI(C#Cc2ccccc2)c2ccccc21 has a TGI [1] of 8.22 µM, a TGI [2] of 7.82 µM and a TGI [3] of 4.24 µM. It also gave a TGI [4] of over 49.8 µM, a TGI [5] of 5.64 µM and a TGI [6] of 5.66 µM. It also gave a TGI [7] of 19.3 µM, a TGI [8] of 19 µM and a TGI [9] of 14.1 µM. It also gave a TGI [10] of 13.5 µM.

Cc1cn([C@H]2[C@@H](CO)C[C@H]2O)c(=O)[nH]c1=O showed a TGI [1] of over 100 µM, a TGI [2] of over 100 µM and a TGI [3] of over 100 µM. For the same compound, the TGI [5] was over 100 µM, the TGI [6] was over 100 µM and the TGI [8] was over 100 µM. For the same compound, the TGI [9] was over 100 µM and the TGI [10] was over 100 µM.

Compound COC1=CC(=O)C2=C(C1=O)[C@H]1CC[C@]3(C)[C@@H](OC(C)=O)CC[C@H]3[C@@H]1CC2 has a TGI [1] of over 100 µM, a TGI [2] of 40.4 µM and a TGI [3] of over 100 µM. For the same compound, the TGI [4] was over 100 µM, the TGI [5] was 59 µM and the TGI [6] was 24 µM. It also gave a TGI [8] of over 100 µM, a TGI [9] of 38.2 µM and a TGI [10] of over 100 µM.

With COc1ccc(/C=C2\CCC(CNc3ccc(Br)cc3)C2=O)cc1 (stereo not drawn) the TGI [1] was over 100 µM, the TGI [2] was over 100 µM and the TGI [3] was 33.3 µM. It also gave a TGI [4] of over 100 µM, a TGI [5] of over 100 µM and a TGI [6] of over 100 µM. The TGI [7] was over 100 µM, the TGI [8] was over 100 µM and the TGI [9] was over 100 µM. For the same compound, the TGI [10] was over 100 µM.

Compound CCCNC(=O)CCC(C)[C@H]1CCC2C3C(C[C@H](OC(C)=O)[C@@]21C)[C@@]1(C)CCC2(C[C@H]1C[C@H]3OC(C)=O)OOC1(CCCCC1)OO2 (stereo partly drawn) has a TGI [1] of 12.4 µM, a TGI [2] of 3.94 µM and a TGI [3] of 4.68 µM. It also gave a TGI [4] of over 100 µM, a TGI [5] of 6.04 µM and a GI50 [6] of 1.42 µM. It also gave a TGI [6] of 3.82 µM, a TGI [7] of over 100 µM and a TGI [8] of over 57.2 µM. The TGI [9] was 9.92 µM and the TGI [10] was 4.32 µM.

CCOC(=O)/C(C#N)=C/N(CC)/N=C/c1ccccc1 gave a TGI [1] of over 100 µM, a TGI [2] of over 100 µM and a TGI [3] of over 100 µM. For the same compound, the TGI [4] was over 100 µM, the TGI [5] was over 100 µM and the TGI [6] was over 100 µM. The TGI [7] was over 100 µM, the TGI [8] was over 100 µM and the TGI [9] was over 100 µM. For the same compound, the TGI [10] was over 100 µM.

In the case of NC(=O)C1=CC2C3C=CC2(O)C(=O)OC3O1 (stereo not drawn), the TGI [1] is reported as 17.3 µM, the TGI [2] is reported as 10.5 µM and the TGI [3] is reported as over 29.5 µM. The TGI [4] was 13.2 µM, the TGI [5] was 4.03 µM and the TGI [6] was 6.73 µM. For the same compound, the TGI [7] was 7.74 µM, the TGI [8] was 5.83 µM and the TGI [9] was 16.5 µM. It also gave a TGI [10] of 16.7 µM.

CC(C)CCCC(C)[C@H]1CC[C@H]2N=C(Nc3ccccc3)CCC[C@]12C (stereo partly drawn) showed a TGI [1] of 7.66 µM, a TGI [2] of 4.7 µM and a TGI [3] of 4.8 µM. It also gave a TGI [5] of 6.39 µM, a TGI [6] of 9.42 µM and a TGI [7] of 3.46 µM. It also gave a TGI [8] of 3.72 µM, a TGI [9] of 3.75 µM and a TGI [10] of 9.33 µM.

CC(C)C1CC(CO)(CNc2cc(Cl)nc(N)n2)C1 (stereo not drawn) gave a TGI [1] of over 100 µM, a TGI [2] of over 100 µM and a TGI [3] of over 100 µM. The TGI [5] was over 100 µM, the TGI [6] was over 100 µM and the TGI [7] was over 100 µM. The TGI [8] was over 100 µM, the TGI [9] was over 100 µM and the TGI [10] was over 100 µM.

For COc1ccc(C=Nc2ccc(-c3nc4ccccc4[nH]3)cc2)cc1OC, the TGI [1] was over 100 µM, the TGI [2] was over 100 µM and the TGI [3] was over 100 µM. It also gave a TGI [4] of over 100 µM, a TGI [5] of over 100 µM and a TGI [6] of over 100 µM. It also gave a TGI [8] of over 100 µM, a TGI [9] of over 100 µM and a TGI [10] of over 100 µM.

CC(C)=CCC[C@@H](C)c1c2[nH]c3ccccc3sc-2c(C)c(=O)c1=O was tested, and the TGI [1] was over 75 µM, the TGI [2] was 5.02 µM and the TGI [3] was 25 µM. It also gave a TGI [4] of 48.5 µM, a TGI [5] of over 29.1 µM and a TGI [6] of over 75 µM. For the same compound, the TGI [7] was 68.6 µM, the TGI [8] was 11.1 µM and the TGI [9] was over 75 µM. It also gave a TGI [10] of over 75 µM.

O=C1CSc2nnc(CCCCCCCCc3nnc4n3NC(=O)CS4)n2N1 gave a TGI [1] of over 100 µM, a TGI [2] of over 100 µM and a TGI [3] of over 100 µM. For the same compound, the TGI [4] was over 100 µM, the TGI [5] was over 100 µM and the TGI [6] was over 100 µM. It also gave a TGI [7] of over 100 µM, a TGI [8] of over 100 µM and a TGI [9] of over 100 µM.
